Results as given in ChEMBL document CHEMBL4308834, “Novel Allosteric Activators for Ferroptosis Regulator Glutathione Peroxidase 4” (J Med Chem, 2018).
Calls of active or inactive are those of the source. The calls are words filed in the database; no cut-off is given here.

Tests used:
[1] = species: Homo sapiens; experiment: (§1) Activation of recombinant His-tagged human cytosolic GPX4 U46C mutant expressed in Escherichia coli M15 assessed as increase in oxidized glutathione-mediated oxidation of NADPH to NADP+ at 200 uM using tert-butyl hydroperoxide as substrate preincubated for 5 mins followed by substrate addition measured for 6 mins by glutathione reductase enzyme coupled fluorescence assay relative to control
[2] = species: Homo sapiens; experiment: as §1, with “NADP+” for “NADP+ at 200 uM”, “assay” for “assay relative to control”
[3] = species: Homo sapiens; experiment: as §1, with “0.4 to 250” for “200”
[4] = species: Homo sapiens; experiment: (§2) Activation of recombinant human GPX4 D21A/D23A/U46C mutant expressed in Escherichia coli M15 assessed as increase in oxidized glutathione-mediated oxidation of NADPH to NADP+ using tert-butyl hydroperoxide as substrate preincubated for 5 mins followed by substrate addition measured for 6 mins by glutathione reductase enzyme coupled fluorescence assay relative to GPX4 U46C mutant control
[5] = Zinc chelating activity in presence of ZnSO4 after 10 mins by crystal violet staining based assay
[6] = Binding affinity to recombinant human GPX4 D21A/D23A double mutant expressed in Escherichia coli M15 by SPR analysis
[7] = Antioxidant activity assessed as DPPH radical scavenging activity at 500 uM; format: functional
[8] = Iron chelating activity assessed as compound-Fe2+ complex formation after 10 mins by Prussian blue assay
[9] = species: Homo sapiens; experiment: as §2, with “D23A/U46C double” for “D21A/D23A/U46C”
[10] = target: Phospholipid hydroperoxide glutathione peroxidase GPX4 (Mus musculus) (UniProt O70325); experiment: Activation of GPX4 in MEF assessed as increase in oxidized glutathione-mediated oxidation of NADPH to NADP+ using tert-butyl hydroperoxide as substrate preincubated for 5 mins followed by substrate addition measured for 6 mins by glutathione reductase enzyme coupled fluorescence assay; format: cell-based
Phospholipid hydroperoxide glutathione peroxidase GPX4 (Mus musculus), sequence (O70325 whole entry): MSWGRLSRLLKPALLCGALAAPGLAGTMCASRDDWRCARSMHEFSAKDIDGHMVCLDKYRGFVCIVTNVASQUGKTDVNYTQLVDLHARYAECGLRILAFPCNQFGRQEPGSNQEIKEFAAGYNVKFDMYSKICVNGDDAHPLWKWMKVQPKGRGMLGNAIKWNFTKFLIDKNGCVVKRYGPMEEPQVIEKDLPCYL

[11] = target: Phospholipid hydroperoxide glutathione peroxidase GPX4 (Mus musculus) (UniProt O70325); experiment: Activation of GPX4 in MEF assessed as increase in […] protection against CHOOH-induced cell death at 200 uM; format: cell-based
[12] = species: Homo sapiens; experiment: as §2, with “D21A/U46C double” for “D21A/D23A/U46C”
[13] = Binding affinity to recombinant His-tagged human cytosolic GPX4 U46C mutant expressed in Escherichia coli M15 by SPR analysis

CCNC(=S)Nc1ccc(S(=O)(=O)NCCN)cc1
Activity [1]: < 115%

NS(=O)(=O)c1ccc(NC(S)=NCc2ccccc2)cc1
Activity [2]: Dose-dependent effect
EC150 [2]: 255 µM
Emax [3]: 300%
Activity [1]: 129%

CCNS(=O)(=O)c1ccc(NC(=S)NC2CCCC2)cc1
Activity [1]: < 115%

NCCNS(=O)(=O)c1ccc(NC(=S)NCc2ccc(Cl)cc2)cc1
Activity [1]: < 115%

O=S(=O)(NCCO)c1ccc(NC(=S)NCc2ccc(Cl)cc2)cc1
Activity [1]: < 115%

CC(C)(C)NC(=S)Nc1ccc(S(=O)(=O)NCCN)cc1
EC150 [2]: 29 µM
Emax [3]: 437%
Activity [1]: 318%

O=S(=O)(NCCO)c1ccc(NC(=S)NC2CCCC2)cc1
Activity [1]: < 115%

NCCCCNS(=O)(=O)c1ccc(NC(=S)NC2CCCC2)cc1
Activity [1]: < 115%

CNCCNS(=O)(=O)c1ccc(NC(=S)NC2CCCC2)cc1
EC150 [2]: 121 µM
Emax [3]: 209%
Activity [1]: 167%

NCCCNS(=O)(=O)c1ccc(NC(=S)NC2CCCC2)cc1
EC150 [2]: 301 µM
Emax [3]: 214%
Activity [1]: 121%

NCCNS(=O)(=O)c1ccc(NC(=S)NC2CCCCC2)cc1
Activity [1]: < 115%

NCCNS(=O)(=O)c1ccc(NC(=S)NC2CCCC2)cc1
EC150 [4]: 382 µM
EC150 [2]: 20 µM
Activity [5]: inactive
Emax [3]: 279%
Activity [1]: 219%
Kd [6]: 374 µM
Activity [7]: inactive
Activity [8]: inactive
EC150 [9]: 235 µM
Activity [10]: Dose-dependent effect
EC150 [10]: 61 µM
Activity [11]: Active
EC150 [12]: 367 µM
Kd [13]: 19 µM

CN1CCN(C(S)=Nc2ccc(S(N)(=O)=O)cc2)CC1
Activity [2]: Dose-dependent effect
EC150 [2]: 285 µM
Emax [3]: 200%
Activity [1]: 115%

NS(=O)(=O)c1ccc(NC(=S)NCCO)cc1
Activity [2]: Dose-dependent effect
EC150 [2]: 147 µM
Emax [3]: 225%
Activity [1]: 167%

NCCNS(=O)(=O)c1ccc(NC(=S)NC2CCCCCC2)cc1
Activity [1]: < 115%
